Where two headings read alike, the source gives them in different places.
Assays:
[1] = rat, J.Pharmacobio-Dyn., 13, 688, 1990; cited from earlier work
[2] = test system: guinea pig skin; details: shaved back, external application, Fragrance Journal 1997; cited from earlier work
[3] = test system: human skin; details: cream containing the compound applied, Fragrance Journal 1997; cited from earlier work
[4] = test system: keratinocytes (HaCaT) derived from human skin epidermis; assay: Protective effect on cell death of keratinocytes (HaCaT) by UVB irradiation (WST-1 cell survival rate); format: cell-based; details: same concentration, compared with ascorbic acid or 2-O-(α-D-glucopyranosyl)ascorbic acid; FIG. 1
Protocol: Human skin keratinocytes HaCaT (cell line gifted by Dr. Fusenig of Heidelberg University) was seeded to 10% bovine fetal serum (FBS)-containing Dulbecco modified Eagle medium (DMEM) at 10,000 cells/well in a 24-well plate, and after 18 hours, 35 millijoule/square centimeter (mJ/cm^2) of UBV (maximum wavelength 312 nm) was irradiated. Two hours before the irradiation, 20 to 100 μM of 2-O-(β-D-glucopyranosyl)ascorbic acid was added, and such ascorbic acid was removed immediately before the irradiation and then rinsed. Irradiation was performed in PBS in the absence of a drug, and after irradiation, culturing was continued in a FBS 10%-containing DMEM medium, and 24 hours after irradiation, a cell survival rate was investigated by a method for measuring mitochondrion dehydrogenase activity with the use of 2-(4-iodophenyl)-3-(4-nitrophenyl)-5-(2,4-disulfophenyl)-2H-tetrazolium monosodium salt (WST-1). Similarly, as Comparative Example, 2-O-(α-D-glucopyranosyl) ascorbic acid and ascorbic acid were studied, and the results are also shown in FIG. 1.

[5] = test system: human skin keratinocytes HaCaT; assay: Concentration of intracellular ascorbic acid in human skin keratinocytes; format: cell-based; details: compared with 2-O-(α-D-glucopyranosyl)ascorbic acid and ascorbic acid; FIG. 2
Protocol: At 3 to 24 hours after addition, a medium is removed, rinsed twice with ice-cooled PBS, and a cell sheet is peeled with trypsin to make single cell state. This is suspended in PBS containing 50 μM dithiothreitol (DTT), and rinsed three times by centrifugation. The cell suspension is disrupted with a potter-type teflon (registered trademark) homogenizer, and then frozen and thawed twice. […] SHODEX® ODSpak (manufactured by SHOWA DENKO K.K., 4.6×150 mm) , mobile phase: 0.1 M KH2PO4-H3PO4 (pH 2.35)-0.1 mM EDTA-2Na, flow rate: 1.5 mL/min).

[6] = test system: normal human dermal fibroblasts (NHDF); assay: Collagen synthesis of normal human dermal fibroblasts (3H-proline incorporation, collagenase-sensitive); format: cell-based; details: compared with 2-O-(α-D-glucopyranosyl)ascorbic acid or ascorbic acid; FIG. 3
Protocol: Normal human dermal fibroblasts NHDF are seeded in a dish having a diameter of 100 millimeter at 370,000 cells. […] After additional 1 hour, 0.12 mL (120 μCi) of L-(2,3-^3H) proline is added, followed by culturing for 48 hours. After culturing, the medium is removed, and a cell sheet is rinsed with PBS four times. Then, cells are peeled with trypsin, cells are lysed with an alkali, and neutralized to obtain an intracellular protein. The protein is subjected to collagen degradation with collagenase of Clostridium to obtain a protein fraction, and radioactivity of the fraction is measured with a liquid scintillation counter using […]. Separately, radioactivity of an intracellular protein fraction which has not been treated with collagenase is similarly measured with a liquid scintillation counter. A difference between respective radioactivities obtained is adopted as collagen synthesis activity.

[7] = Pharmacokinetics at oral ingestion by a rat: intact form in blood; format: in vivo
[8] = test system: human isolated skin piece; details: female, 5 h, 100 mM, pH 7.25
[9] = test system: burn patient; details: applied, Japanese Cosmetic Science Society 1998; cited from earlier work
[10] = test system: pig skin; details: 10% aqueous solution, pre-administration for 3 days to one week, Br. J. Dermatol. 1992; cited from earlier work

**Q.** With `O=C1O[C@H]([C@@H](O)CO)C(O)=C1O[C@H]1O[C@H](CO)[C@@H](O)[C@H](O)[C@H]1O` [2-O-(α-D-glucopyranosyl)ascorbic acid] as the compound, how does the “Intact form in blood after oral ingestion” value [1] read?
**A.** not detected as an intact form in blood

**Q.** What about the “Inducement of skin inflammation due to UVB irradiation” value [2] of the same compound?
**A.** suppressed

**Q.** What about the “Pigmentation due to ultraviolet-ray irradiation” value [3] of the same compound?
**A.** suppressed

**Q.** With `O=C1O[C@H]([C@@H](O)CO)C(O)=C1O[C@@H]1O[C@H](CO)[C@@H](O)[C@H](O)[C@H]1O` [AβG, 2-O-(β-D-glucopyranosyl)ascorbic acid] as the compound, how does the “Suppression of cell death of keratinocytes (HaCaT) due to UVB irradiation” value [4] read?
**A.** clearly suppressed more strongly cell death

**Q.** And the “Concentration of intracellular ascorbic acid in human skin keratinocytes” value [5]?
**A.** maintained at a highest concentration for a longest term

**Q.** And the “Collagen synthesis by normal human dermal fibroblasts (NHDF)” value [6]?
**A.** has higher activity

**Q.** And the “Intact form in blood after oral ingestion” value [7]?
**A.** detected in blood

**Q.** And the “Ratio (%) of reduced form of vitamin C occupied in total vitamin C in skin, Dermis” value [8]?
**A.** 25%

**Q.** What about the “Ratio (%) of reduced form of vitamin C occupied in total vitamin C in skin, Epidermis” value [8] of the same compound?
**A.** 67%

**Q.** And the “Total vitamin C in skin, Dermis” value [8]?
**A.** 3 nmol/g tissue

**Q.** What about the “Total vitamin C in skin, Epidermis” value [8] of the same compound?
**A.** 15 nmol/g tissue

**Q.** And the “Uptake amount of AβG into skin piece, Dermis” value [8]?
**A.** 500

**Q.** What about the “Uptake amount of AβG into skin piece, Epidermis” value [8] of the same compound?
**A.** 3,400

**Q.** Which Cure of burn [9] does the source give for `O=C1O[C@H]([C@@H](O)CO)C(O)=C1OP(=O)(O)O` [ascorbic acid 2-phosphate] here?
**A.** cured without scar

**Q.** What does the source list for `O=C1O[C@H]([C@@H](O)CO)C(O)=C1O` [ascorbic acid]?
**A.** Inducement of skin inflammation due to UVB irradiation [2]: suppressed; Ultraviolet-ray disorder [10]: ultraviolet-ray disorder can be alleviated

From US7781409B2, “Composition for external use” (Suntory Holdings Limited, priority 2003, dated 2010)
